Measurements reported in US10189854B2, “Substituted pyrimidine compounds” (Grünenthal GmbH, priority 2014, dated 2019).

Target: human PDE4B1 (Homo sapiens (Human), UniProt Q07343)
Assay: cAMP HTRF assay to determine the activity of hPDE4B1
Format: biochemical
Conditions: IC50 inhibition of PDE4B; human recombinant PDE4B1, cAMP HTRF assay
Method in brief: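 Recombinant human PDE4B1 expressed in Sf9 cells (4.8 U) was incubated with 40 nM cAMP for 30 min at room temperature in Tris buffer, pH 7.8, with MgCl2, DTT and Tween 20. HTRF detection of remaining cAMP followed, with 1 mM IBMX stop, read 60 min later as the 665/620 nm ratio. Results are % inhibition versus control.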

human PDE4B1, sequence (Q07343 whole entry): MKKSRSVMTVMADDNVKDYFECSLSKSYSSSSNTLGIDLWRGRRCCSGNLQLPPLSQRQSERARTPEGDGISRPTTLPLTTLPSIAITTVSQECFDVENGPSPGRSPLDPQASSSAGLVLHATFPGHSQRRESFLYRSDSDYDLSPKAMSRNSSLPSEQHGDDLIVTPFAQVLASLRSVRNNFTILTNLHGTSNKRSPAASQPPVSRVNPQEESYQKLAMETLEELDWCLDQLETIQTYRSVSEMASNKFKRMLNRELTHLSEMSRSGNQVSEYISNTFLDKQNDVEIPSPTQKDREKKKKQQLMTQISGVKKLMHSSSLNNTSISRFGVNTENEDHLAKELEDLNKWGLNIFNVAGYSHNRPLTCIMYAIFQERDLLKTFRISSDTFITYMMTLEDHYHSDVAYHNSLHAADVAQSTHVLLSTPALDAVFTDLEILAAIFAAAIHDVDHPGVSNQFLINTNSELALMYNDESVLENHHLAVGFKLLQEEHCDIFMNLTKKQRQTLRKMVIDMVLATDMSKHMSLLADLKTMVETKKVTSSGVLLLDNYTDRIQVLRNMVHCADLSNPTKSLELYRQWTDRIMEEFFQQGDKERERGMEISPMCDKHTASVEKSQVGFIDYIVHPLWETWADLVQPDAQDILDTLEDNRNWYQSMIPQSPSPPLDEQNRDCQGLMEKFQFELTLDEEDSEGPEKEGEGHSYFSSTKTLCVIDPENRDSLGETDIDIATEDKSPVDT

Structure (SMILES) | IC50 [µM]
CCN(C)C(=O)c1ccc2c(c1)N(c1ncc(-c3ccccc3F)cn1)CC21CC1 [Compound 90, N-Ethyl-1-[5-(2-fluorophenyl)-pyrimidin-2-yl]-N-methyl-spiro[1,2-dihydro-indole-3,1′-cyclopropane]-6-carboxylic acid amide] | 0.1 to 1
CN(Cc1ccco1)C(=O)c1ccc2c(c1)N(c1ncc(-c3ccccc3F)cn1)CC21CC1 [Compound 91, 1-[5-(2-Fluorophenyl)-pyrimidin-2-yl]-N-(furan-2-yl-methyl)-N-methyl-spiro[1,2-dihydro-indole-3,1′-cyclopropane]-6-carboxylic acid amide] | 0.1 to 1
CN(CCO)C(=O)c1ccc2c(c1)N(c1ncc(-c3ccccc3F)cn1)CC21CC1 [Compound 95, 1-[5-(2-Fluorophenyl)-pyrimidin-2-yl]-N-(2-hydroxy-ethyl)-N-methyl-spiro[1,2-dihydro-indole-3,1′-cyclopropane]-6-carboxylic acid amide] | < 0.1
CN(C)CCN(C)C(=O)c1ccc2c(c1)N(c1ncc(-c3ccccc3F)cn1)CC21CC1 [Compound 99, N-[2-(Dimethylamino)ethyl]-1-[5-(2-fluorophenyl)-pyrimidin-2-yl]-N-methyl-spiro[1,2-dihydro-indole-3,1′-cyclopropane]-6-carboxylic acid amide] | < 0.1
CN(C(=O)c1ccc2c(c1)N(c1ncc(-c3ccccc3F)cn1)CC21CC1)C1CCOCC1 [Compound 102, 1-[5-(2-Fluorophenyl)-pyrimidin-2-yl]-N-methyl-N-tetrahydro-pyran-4-yl-spiro[1,2-dihydro-indole-3,1′-cyclopropane]-6-carboxylic acid amide] | 0.1 to 1
N[C@@H]1CCN(C(=O)c2ccc3c(c2)N(c2ncc(-c4ccccc4)cn2)CC32CC2)C1 [Compound 108, [(3R)-3-Amino-pyrrolidin-1-yl]-[1-(5-phenyl-pyrimidin-2-yl)-spiro[1,2-dihydro-indole-3,1′-cyclopropane]-6-yl]methanone] | < 0.1
N#Cc1ccc(F)c(-c2cnc(N3CC4(CC4)c4ccc(C(=O)N5CCNCC5)cc43)nc2)c1 [Compound 109, 4-Fluoro-3-[2-[6-(piperazine-1-carbonyl)-spiro[1,2-dihydro-indole-3,1′-cyclopropane]-1-yl]-pyrimidin-5-yl]-benzonitrile] | < 0.1
COc1ccc(C(N)=O)c(-c2cnc(N3CC4(CC4)c4ccc(C(=O)N5CCOCC5)cc43)nc2)c1 [Compound 113, 4-Methoxy-2-[2-[6-(morpholine-4-carbonyl)-spiro[1,2-dihydro-indole-3,1′-cyclopropane]-1-yl]-pyrimidin-5-yl]-benzamide] | 0.1 to 1
NC(=O)c1ccc(F)c(-c2cnc(N3CC4(CC4)c4ccc(C(=O)N5CCNCC5)cc43)nc2)c1 [Compound 116, 4-Fluoro-3-[2-[6-(piperazine-1-carbonyl)-spiro[1,2-dihydro-indole-3,1′-cyclopropane]-1-yl]-pyrimidin-5-yl]-benzamide] | < 0.1
NC(=O)c1cccc(-c2cnc(N3CC4(CC4)c4ccc(C(=O)N5CC[C@@H](N)C5)cc43)nc2)c1 [Compound 118, 3-[2-[6-[(3R)-3-Amino-pyrrolidine-1-carbonyl]-spiro[1,2-dihydro-indole-3,1′-cyclopropane]-1-yl]-pyrimidin-5-yl]-benzamide] | < 0.1
NC(=O)c1ccc(-c2cnc(N3CC4(CC4)c4ccc(C(=O)N5CCNCC5)cc43)nc2)c(F)c1 [Compound 119, 3-Fluoro-4-[2-[6-(piperazine-1-carbonyl)-spiro[1,2-dihydro-indole-3,1′-cyclopropane]-1-yl]-pyrimidin-5-yl]-benzamide] | < 0.1
COc1ccc(C(N)=O)c(-c2cnc(N3CC4(CC4)c4ccc(C(=O)N5CCNCC5)cc43)nc2)c1 [Compound 122, 4-Methoxy-2-[2-[6-(piperazine-1-carbonyl)-spiro[1,2-dihydro-indole-3,1′-cyclopropane]-1-yl]-pyrimidin-5-yl]-benzamide] | 1 to 10
N#Cc1ccc(F)c(-c2cnc(N3CC4(CC4)c4ccc(C(=O)N5CC[C@@H](N)C5)cc43)nc2)c1 [Compound 123, 3-[2-[6-[(3R)-3-Amino-pyrrolidine-1-carbonyl]-spiro[1,2-dihydro-indole-3,1′-cyclopropane]-1-yl]-pyrimidin-5-yl]-4-fluoro-benzonitrile] | < 0.1

The next lines start with the values.

IC50 [µM] | Structure (SMILES)
0.1 to 1 | COC[C@@H]1CCCN1C(=O)c1ccc2c(c1)N(c1ncc(-c3ccccc3F)cn1)CC21CC1 [Compound 92, [1-[5-(2-Fluorophenyl)-pyrimidin-2-yl]-spiro[1,2-dihydro-indole-3,1′-cyclopropane]-6-yl]-[(2S)-2-(methoxymethyl)-pyrrolidin-1-yl]-methanone]
< 0.1 | O=C(c1ccc2c(c1)N(c1ncc(-c3ccccc3F)cn1)CC21CC1)N1CCSCC1 [Compound 93, [1-[5-(2-Fluorophenyl)-pyrimidin-2-yl]-spiro[1,2-dihydro-indole-3,1′-cyclopropane]-6-yl]thiomorpholin-4-yl-methanone]
< 0.1 | O=C(c1ccc2c(c1)N(c1ncc(-c3ccccc3F)cn1)CC21CC1)N1CCCC(O)C1 (stereo not drawn) [Compound 96, [1-[5-(2-Fluorophenyl)-pyrimidin-2-yl]-spiro[1,2-dihydro-indole-3,1′-cyclopropane]-6-yl]-(3-hydroxy-piperidin-1-yl)-methanone]
1 to 10 | O=C(c1ccc2c(c1)N(c1ncc(-c3ccccc3F)cn1)CC21CC1)N1CCCCC1CO (stereo not drawn) [Compound 97, [1-[5-(2-Fluorophenyl)-pyrimidin-2-yl]-spiro[1,2-dihydro-indole-3,1′-cyclopropane]-6-yl]-[2-(hydroxymethyl)-piperidin-1-yl]-methanone]
0.1 to 1 | O=C(c1ccc2c(c1)N(c1ncc(-c3ccccc3F)cn1)CC21CC1)N1CCC(CO)CC1 [Compound 98, [1-[5-(2-Fluorophenyl)-pyrimidin-2-yl]-spiro[1,2-dihydro-indole-3,1′-cyclopropane]-6-yl]-[4-(hydroxymethyl)-piperidin-1-yl]-methanone]
0.1 to 1 | COC1CCN(C(=O)c2ccc3c(c2)N(c2ncc(-c4ccccc4F)cn2)CC32CC2)CC1 [Compound 100, [1-[5-(2-Fluorophenyl)-pyrimidin-2-yl]-spiro[1,2-dihydro-indole-3,1′-cyclopropane]-6-yl]-(4-methoxy-piperidin-1-yl)-methanone]
0.1 to 1 | CC1COCC(C)N1C(=O)c1ccc2c(c1)N(c1ncc(-c3ccccc3F)cn1)CC21CC1 (stereo not drawn) [Compound 101, (3,5-Dimethyl-morpholin-4-yl)-[1-[5-(2-fluorophenyl)-pyrimidin-2-yl]-spiro[1,2-dihydro-indole-3,1′-cyclopropane]-6-yl]-methanone]
< 0.1 | CC1COCCN1C(=O)c1ccc2c(c1)N(c1ncc(-c3ccccc3F)cn1)CC21CC1 (stereo not drawn) [Compound 103, [1-[5-(2-Fluorophenyl)-pyrimidin-2-yl]-spiro[1,2-dihydro-indole-3,1′-cyclopropane]-6-yl]-(3-methyl-morpholin-4-yl)-methanone]
< 0.1 | C[C@@H]1CN(C(=O)c2ccc3c(c2)N(c2ncc(-c4ccccc4F)cn2)CC32CC2)C[C@H](C)O1 [Compound 104, [(2R,6S)-2,6-dimethyl-morpholin-4-yl]-[1-[5-(2-fluorophenyl)-pyrimidin-2-yl]-spiro[1,2-dihydro-indole-3,1′-cyclopropane]-6-yl]-methanone]
0.1 to 1 | CC1(C)CN(C(=O)c2ccc3c(c2)N(c2ncc(-c4ccccc4F)cn2)CC32CC2)CCO1 [Compound 105, (2,2-Dimethyl-morpholin-4-yl)-[1-[5-(2-fluorophenyl)-pyrimidin-2-yl]-spiro[1,2-dihydro-indole-3,1′-cyclopropane]-6-yl] methanone]
0.1 to 1 | O=C(c1ccc2c(c1)N(c1ncc(-c3ccccc3F)cn1)CC21CC1)N1CCS(=O)(=O)CC1 [Compound 106, (1,1-Dioxo-[1,4]thiazinan-4-yl)-[1-[5-(2-fluorophenyl)-pyrimidin-2-yl]-spiro[1,2-dihydro-indole-3,1′-cyclopropane]-6-yl]-methanone]
< 0.1 | O=C(c1ccc2c(c1)N(c1ncc(-c3ccccc3F)cn1)CC21CC1)N1CC2CC1CN2 (stereo not drawn) [Compound 107, (2,5-Diazabicyclo[2.2.1]heptan-2-yl)-[1-[5-(2-fluorophenyl)-pyrimidin-2-yl]-spiro[1,2-dihydro-indole-3,1′-cyclopropane]-6-yl]-methanone]
0.1 to 1 | CN(C)[C@@H]1CCN(C(=O)c2ccc3c(c2)N(c2ncc(-c4ccccc4F)cn2)CC32CC2)C1 [Compound 110, [(3R)-3-Dimethylamino-pyrrolidin-1-yl]-[1-[5-(2-fluorophenyl)-pyrimidin-2-yl]-spiro[1,2-dihydro-indole-3,1′-cyclopropane]-6-yl]-methanone]
1 to 10 | O=C(c1ccc2c(c1)N(c1ncc(-c3ccccc3F)cn1)CC21CC1)N1CC2(CCNC2)C1 [Compound 111]
< 0.1 | N[C@@H]1CCN(C(=O)c2ccc3c(c2)N(c2ncc(-c4cccc(F)c4F)cn2)CC32CC2)C1 [Compound 114, [(3R)-3-Amino-pyrrolidin-1-yl]-[1-[5-(2,3-difluoro-phenyl)-pyrimidin-2-yl]-spiro[1,2-dihydro-indole-3,1′-cyclopropane]-6-yl]-methanone]
< 0.1 | N[C@H]1CCN(C(=O)c2ccc3c(c2)N(c2ncc(-c4ccccc4F)cn2)CC32CC2)C1 [Compound 115, [(3S)-3-Amino-pyrrolidin-1-yl]-[1-[5-(2-fluorophenyl)-pyrimidin-2-yl]-spiro[1,2-dihydro-indole-3,1′-cyclopropane]-6-yl]-methanone]
< 0.1 | CN[C@@H]1CCN(C(=O)c2ccc3c(c2)N(c2ncc(-c4ccccc4F)cn2)CC32CC2)C1 [Compound 121, [1-[5-(2-Fluorophenyl)-pyrimidin-2-yl]-spiro[1,2-dihydro-indole-3,1′-cyclopropane]-6-yl]-[(3R)-3-methylamino-pyrrolidin-1-yl]-methanone]
